Test results reported in patent US20140249573A1, “METHODS AND DEVICES FOR OCCLUDING BLOOD FLOW TO AN ORGAN” (A.A. CASH TECHNOLOGY LTD., priority 2011, published 2014).
Several values for one entry are separate records, joined by “and”; a condition that tells them apart may be missing. Equal values may be shown once.

Experiments:
lymphocyte = details: three female pigs, 60 mg/kg IV over 1 hour, the following day
Description: The protocol and design of all parts of this study were approved by the Animal Research Ethics Committee of Israel. Three female pigs (The Institute of Animal Research, Kibbutz Lahav, Israel) weighing 60 Kg each, were anesthetized with 10 mg/kg intramuscular ketamine hydrochloride and 4 mg/kg xylazine hydrochloride (Vetmarket, Israel). One ovary of each pig was exposed by a longitudinal midline incision. A conventional gastric band (Lap-band; Allergen, Irvine, Calif., USA) was modified according to some embodiments of the invention, to occlude blood flow to the ovaries. The band was wound around the ovarian hilum, and a zip tie was placed on the center of the band ring to reduce the diameter of the band's aperture. 10 ml saline was injected via the band's port thus completely blocking blood flow through the ovarian and uterine arteries and veins. The color and the morphology of the ovary were observed after occlusion of blood flow as well as after the bands were released. The other ovary in each pig was left unprotected (i.e. was left with natural blood flow, and thus completely exposed to chemotherapy). Heparin was administered intravenously before occlusion to prevent or reduce blood coagulation within the ovary throughout the occlusion time interval and a few hours thereafter. A control pig was left untreated. […]

ovary = details: eight days after treatment
Description: The protocol and design of all parts of this study were approved by the Animal Research Ethics Committee of Israel. Three female pigs (The Institute of Animal Research, Kibbutz Lahav, Israel) weighing 60 Kg each, were anesthetized with 10 mg/kg intramuscular ketamine hydrochloride and 4 mg/kg xylazine hydrochloride (Vetmarket, Israel). One ovary of each pig was exposed by a longitudinal midline incision. A conventional gastric band (Lap-band; Allergen, Irvine, Calif., USA) was modified according to some embodiments of the invention, to occlude blood flow to the ovaries. The band was wound around the ovarian hilum, and a zip tie was placed on the center of the band ring to reduce the diameter of the band's aperture. 10 ml saline was injected via the band's port thus completely blocking blood flow through the ovarian and uterine arteries and veins. The color and the morphology of the ovary were observed after occlusion of blood flow as well as after the bands were released. The other ovary in each pig was left unprotected (i.e. was left with natural blood flow, and thus completely exposed to chemotherapy). Heparin was administered intravenously before occlusion to prevent or reduce blood coagulation within the ovary throughout the occlusion time interval and a few hours thereafter. A control pig was left untreated.
The ovaries blood supply was occluded for 16 hours after the drug administration interval (i.e. a total occlusion time interval exceeding 17 hours). The bands were then opened by drawing out the 10 ml of saline via the port.
Eight days after the chemo treatment the pigs were euthanized according to animal ethics procedures and the ovaries were removed and examined visually, removed, weighed and follicles were counted.

Compound: O=P1(N(CCCl)CCCl)NCCCO1 (stereo not shown) [Cyclophosphamide]
- lymphocyte counts, decreased to % of the initial level (lymphocyte): 12%
- size and number of follicles of occluded (protected) ovaries (ovary; all ovaries occluded during chemotherapy administration): comparable to the control animal
- Weight of ovary, Occluded (ovary; ovary with blood supply occluded by band for more than 17 hours, 60 mg/kg IV over 1 hour, one value per pig, 60 mg/kg): 3.6 gr and 3.8 gr and 5.2 gr
- visual appearance of unprotected ovaries (ovary; unprotected ovaries, in two of the three animals): visible signs of atrophy
